Structures are written as SMILES. The source made the active and inactive calls. No cut-off for these calls is given here.

Test system in the first data set: not listed separately
The experiment in a line: Therapeutic index, ratio EC50 for human MRC5 SV2 cells to EC50 for Trypanosoma cruzi Tulahuen CL2 intracellular amastigotes. In kind it is toxicity, cell-based. The conditions noted are these: read-out: Ratio EC50.
For the compound `Cc1ccc(-c2cn([C@@H]3O[C@H](CO)C[C@H]3O)c3ncnc(N)c23)cc1C`, the selectivity ratio came out at 16.

For the compound `Nc1ncnc2c1c(C1CCCCC1)cn2[C@@H]1O[C@H](CO)C[C@H]1O`, the selectivity ratio is > 3.

For the compound `Nc1ncnc2c1c(-c1ccc(Cl)c(F)c1)cn2[C@@H]1O[C@H](CO)C[C@H]1O`, the selectivity ratio worked out at 260.

Turning to `Nc1ncnc2c1c(-c1ccc(Cl)cc1Cl)cn2[C@@H]1O[C@H](CO)C[C@H]1O`, the selectivity ratio turned out to be 44.

Take `COc1ccc(-c2cn([C@@H]3O[C@H](CO)C[C@H]3O)c3ncnc(N)c23)cc1Cl`: the selectivity ratio is > 19.

For `CC(C)c1ccc(-c2cn([C@@H]3O[C@H](CO)C[C@H]3O)c3ncnc(N)c23)cc1`, the selectivity ratio worked out at 2.9.

`Cc1cccc(-c2cn([C@@H]3O[C@H](CO)C[C@H]3O)c3ncnc(N)c23)c1`: the selectivity ratio was > 12.

Take `Cc1cc(-c2cn([C@@H]3O[C@H](CO)C[C@H]3O)c3ncnc(N)c23)ccc1Cl`: the selectivity ratio amounted to 80.

Consider `Nc1ncnc2c1ncn2[C@@H]1O[C@H](CO)C[C@H]1O` [CORDYCEPIN], for which the selectivity ratio was > 25.

For the compound `Nc1ncnc2c1c(-c1cccc(Cl)c1)cn2[C@@H]1O[C@H](CO)C[C@H]1O`, the selectivity ratio is 37.

As for `Nc1ncnc2c1c(-c1ccc(F)c(F)c1)cn2[C@@H]1O[C@H](CO)C[C@H]1O`, the selectivity ratio was > 190.

On to `Nc1ncnc2c1c(-c1ccc(C(F)(F)F)cc1)cn2[C@@H]1O[C@H](CO)C[C@H]1O`, for which the selectivity ratio came to 76.

Regarding `Nc1ncnc2c1c(-c1cccc(C(F)(F)F)c1)cn2[C@@H]1O[C@H](CO)C[C@H]1O`, the selectivity ratio came to 4.4.

The test system of the next data set is Trypanosoma cruzi. The experiment in a line: Antiparasitic activity against Trypanosoma cruzi Tulahuen CL2 intracellular amastigotes expressing beta-galactosidase infected in human MRC5 SV2 cells after 7 days by chlorophenol red beta-D-galactopyranoside-based spectrophotometric analysis. In kind it is functional, organism-based. Conditions: Tulahuen CL2, MRC-5 SV2, 168 h.
On to `O=C(Cn1ccnc1[N+](=O)[O-])NCc1ccccc1` [BENZNIDAZOLE], for which the EC50 (in general, the concentration that produces a half-maximal response) turned out to be 2.28 µM.

The data set is the same for the next values; noted with them: Tulahuen CL2, MRC-5 SV2, 168 h, read-out: EC50.
Consider `Cc1ccc(-c2cn([C@@H]3O[C@H](CO)C[C@H]3O)c3ncnc(N)c23)cc1C`, for which the EC50 amounted to 1.37 µM.

Consider `Nc1ncnc2c1c(C1CCCCC1)cn2[C@@H]1O[C@H](CO)C[C@H]1O`, for which the EC50 turned out to be 20.9 µM.

On to `Nc1ncnc2c1c(-c1ccc(Cl)c(F)c1)cn2[C@@H]1O[C@H](CO)C[C@H]1O`, for which the EC50 came to 0.071 µM.

In the case of `Nc1ncnc2c1c(-c1ccc(Cl)cc1Cl)cn2[C@@H]1O[C@H](CO)C[C@H]1O`, the 50% effective concentration (EC50) came out at 0.45 µM.

As for `COc1ccc(-c2cn([C@@H]3O[C@H](CO)C[C@H]3O)c3ncnc(N)c23)cc1Cl`, the EC50 worked out at 3.3 µM.

On to `CC(C)c1ccc(-c2cn([C@@H]3O[C@H](CO)C[C@H]3O)c3ncnc(N)c23)cc1`, for which the EC50 turned out to be 8.48 µM.

On to `Cc1cccc(-c2cn([C@@H]3O[C@H](CO)C[C@H]3O)c3ncnc(N)c23)c1`, for which the 50% effective concentration (EC50) was 5.15 µM.

Regarding `Cc1cc(-c2cn([C@@H]3O[C@H](CO)C[C@H]3O)c3ncnc(N)c23)ccc1Cl`, the EC50 stood at 0.21 µM.

`Nc1ncnc2c1ncn2[C@@H]1O[C@H](CO)C[C@H]1O` [CORDYCEPIN]: the EC50 is 2.51 µM.

Take `Nc1ncnc2c1c(-c1cccc(Cl)c1)cn2[C@@H]1O[C@H](CO)C[C@H]1O`: the EC50 came out at 0.97 µM.

With `Nc1ncnc2c1c(-c1ccc(F)c(F)c1)cn2[C@@H]1O[C@H](CO)C[C@H]1O`, the EC50 amounted to 0.33 µM.

`Nc1ncnc2c1c(-c1ccc(C(F)(F)F)cc1)cn2[C@@H]1O[C@H](CO)C[C@H]1O`: the EC50 was found to be 0.53 µM.

On to `Nc1ncnc2c1c(-c1cccc(C(F)(F)F)c1)cn2[C@@H]1O[C@H](CO)C[C@H]1O`, for which the EC50 was 11.2 µM.

Test system in the next data set: not listed separately
In words: Cytotoxicity against human MRC5 SV2 cells assessed as reduction in cell viability after 3 days resazurin-based fluorimetric assay. The conditions noted are these: MRC-5 SV2, 72 h.
As to `Cc1ccc(-c2cn([C@@H]3O[C@H](CO)C[C@H]3O)c3ncnc(N)c23)cc1C`, the EC50 was 22.3 µM.

As for `Nc1ncnc2c1c(C1CCCCC1)cn2[C@@H]1O[C@H](CO)C[C@H]1O`, the EC50 is > 64 µM.

With `Nc1ncnc2c1c(-c1ccc(Cl)c(F)c1)cn2[C@@H]1O[C@H](CO)C[C@H]1O`, the EC50 is 18.6 µM.

As to `Nc1ncnc2c1c(-c1ccc(Cl)cc1Cl)cn2[C@@H]1O[C@H](CO)C[C@H]1O`, the EC50 stood at 19.6 µM.

In the case of `COc1ccc(-c2cn([C@@H]3O[C@H](CO)C[C@H]3O)c3ncnc(N)c23)cc1Cl`, the EC50 is > 64 µM.

As to `CC(C)c1ccc(-c2cn([C@@H]3O[C@H](CO)C[C@H]3O)c3ncnc(N)c23)cc1`, the EC50 is 24.9 µM.

For the compound `Cc1cccc(-c2cn([C@@H]3O[C@H](CO)C[C@H]3O)c3ncnc(N)c23)c1`, the EC50 is > 64 µM.

As to `Cc1cc(-c2cn([C@@H]3O[C@H](CO)C[C@H]3O)c3ncnc(N)c23)ccc1Cl`, the EC50 came to 16.7 µM.

For `Nc1ncnc2c1ncn2[C@@H]1O[C@H](CO)C[C@H]1O` [CORDYCEPIN], the EC50 was > 64 µM.

Regarding `Nc1ncnc2c1c(-c1cccc(Cl)c1)cn2[C@@H]1O[C@H](CO)C[C@H]1O`, the EC50 came out at 36.1 µM.

In the case of `Nc1ncnc2c1c(-c1ccc(F)c(F)c1)cn2[C@@H]1O[C@H](CO)C[C@H]1O`, the 50% effective concentration (EC50) is > 64 µM.

Turning to `Nc1ncnc2c1c(-c1ccc(C(F)(F)F)cc1)cn2[C@@H]1O[C@H](CO)C[C@H]1O`, the EC50 amounted to 40 µM.

For the compound `Nc1ncnc2c1c(-c1cccc(C(F)(F)F)c1)cn2[C@@H]1O[C@H](CO)C[C@H]1O`, the 50% effective concentration (EC50) was 49.6 µM.

A further data set has as its system Trypanosoma cruzi. In words: Antiparasitic activity against Trypanosoma cruzi Y strain bloodstream trypomastigotes infected in Swiss Webster mouse assessed as decrease in parasitemia at 100 mg/kg, po sid via gavage administered for 5 consecutive days measured at day 8 post infection by direct microscopic counting. In kind it is functional, organism-based.
Conditions: not given
With `O=C(Cn1ccnc1[N+](=O)[O-])NCc1ccccc1` [BENZNIDAZOLE], the result was Active.

In the next data set the test system is Trypanosoma cruzi. In words: Antiparasitic activity against Trypanosoma cruzi Y strain bloodstream trypomastigotes infected in Swiss Webster mouse assessed as protection against parasite-induced mortality at 25 mg/kg, po bid via gavage administered for 5 consecutive days starting from day 5 post infection measured at day 15 post infection.
Conditions: not given
Type of data set: functional, organism-based.
Consider `O=C(Cn1ccnc1[N+](=O)[O-])NCc1ccccc1` [BENZNIDAZOLE], for which the result was Active.

The next data set deals with Trypanosoma cruzi. In words: Trypanocidal activity against Trypanosoma cruzi Y strain bloodstream trypomastigotes isolated from infected Swiss mouse […] assessed as parasite death after 24 hrs by neubauer chamber based light microscopy. Type of data set: functional, organism-based.
Conditions: not given
Consider `O=C(Cn1ccnc1[N+](=O)[O-])NCc1ccccc1` [BENZNIDAZOLE], for which the EC50 worked out at 11.5 µM.

The test system of a further data set is Trypanosoma cruzi. In words: Trypanocidal activity against Trypanosoma cruzi Y strain intracellular amastigotes infected in mouse cardiac cells assessed as parasite death after 168 hrs by Giemsa-staining based assay. In kind it is functional, organism-based.
Conditions: not given
In the case of `O=C(Cn1ccnc1[N+](=O)[O-])NCc1ccccc1` [BENZNIDAZOLE], the EC50 is 0.354 µM.

Test system in a further data set: not listed separately
The experiment in a line: Cytotoxicity against Swiss mouse embryonic cardiomyocytes assessed as reduction in cell viability after 24 hrs by prestoblue-staining based colorimetry. The conditions noted are these: Cardiac muscle cell.
`O=C(Cn1ccnc1[N+](=O)[O-])NCc1ccccc1` [BENZNIDAZOLE]: the EC50 was > 400 µM.

The test system of the next data set is Trypanosoma cruzi. In words: Antiparasitic activity against Trypanosoma cruzi Y strain bloodstream trypomastigotes infected in Swiss Webster mouse assessed as protection against parasite-induced mortality at 100 mg/kg, po sid via gavage administered for 5 consecutive days starting from day 5 post infection measured at day 15 post infection. In kind it is functional, organism-based.
Conditions: not given
With `O=C(Cn1ccnc1[N+](=O)[O-])NCc1ccccc1` [BENZNIDAZOLE], the result was Active.

The next data set has as its system Trypanosoma cruzi. The experiment in a line: Antiparasitic activity against Trypanosoma cruzi Y strain bloodstream trypomastigotes infected in Swiss Webster mouse at 100 mg/kg, po sid via gavage administered for 5 consecutive days starting from day 5 post infection followed by cyclophosphamide-induced immunosuppression on day 40 post infection for 4 consecutive days.
Conditions: not given
In kind it is functional, organism-based.
Consider `O=C(Cn1ccnc1[N+](=O)[O-])NCc1ccccc1` [BENZNIDAZOLE], for which the outcome was inactive.

Source of the values: ChEMBL document CHEMBL4382200, “Discovery of Novel 7-Aryl 7-Deazapurine 3'-Deoxy-ribofuranosyl Nucleosides with Potent Activity against Trypanosoma cruzi” (J Med Chem, 2018).
